Consider four molecules from patent US11203583B2, “Prodrug and profluorescent compounds for selective mitochondrial imaging and therapeutic targeting” (ARIZONA BOARD OF REGENTS ON BEHALF OF ARIZONA STATE …, priority 2016, dated 2021).

Entries after “also recorded” stand apart in the source; their conditions may differ.

The test system of data set [1] is NADH oxidase (mitochondrial respiratory complexes I, III, and IV). Nature of the data set: NADH oxidase activity assay in bovine heart submitochondrial particles. The class given is biochemical. As to conditions: for NADH oxidase inhibitory activity (qualitative comparison): 0.05, 0.1 and 0.5 μM concentrations, FIG. 9a. On the procedure:
The effect of compounds AMA, 4a and 4b on NADH oxidase activity were evaluated using bovine heart mitochondria. The bovine heart mitochondria and bovine heart submitochondrial particles (SMPs) were prepared as described.^2 The SMPs were diluted to 0.5 mg/mL, and the test compounds were assayed at 25° C. and monitored spectrophotometrically using a Beckman Coulter DU-530 spectrometer (340 nm, c 6.22 mM^−1 cm^−1). NADH oxidase activity was determined in 1 mL of 50 mM Hepes buffer containing 5 mM MgCl2, pH 7.5. The final mitochondrial protein concentration was 30 μg/mL. The initial rates of NADH oxidation were calculated from the linear portion of the traces. Data are reported as the mean of three independent experiments each run in triplicate.

Data set [2] deals with mitochondrial nitroreductase in live A549 cells. Description: Fluorescence microscopy: activation of prodrugs 4a and 4b (AMA release) in live A549 cells. Conditions: 25 μM; for localization of AMA fluorescence relative to mitochondria in A549 cells: MitoTracker Green FM; for release of AMA (appearance of AMA fluorescence, λem ~425 nm) in live A549 cells: 4 hours. The data set is classed as cell-based, human. The procedure:
The finding of nitroreductase activity associated with the mitochondria of human cells encouraged us to design a new prodrug based on the mitochondrial poison antimycin A (AMA). It has recently been noted that AMA is toxic only at relatively high concentration,^19 plausibly due to a lack of facile access to the mitochondria. […] Accordingly, 0-p-nitrobenzyl-AMA (4a) was prepared in good yield by alkylation of AMA (FIG. 8a). Also prepared as a control was O-benzyl-AMA (4b). […] Accordingly, it is possible to monitor the release of AMA within the mitochondria after enzymatic reduction of the nitro moiety in 4a.
Fluorescence microscopy images were acquired using a Zeiss Axiovert 200M inverted microscope fitted with an AxioCam MRm camera equipped with a 300 W xenon lamp (Sutter, Novato, Calif., USA), and DAPI (blue channel) and Texas red (red channel) filters (Chroma, Bellows Falls, Vt., USA). A549 cells were grown on glass bottom microwell disks (MatTek Corporation, MA, USA) at a cell density of 10000 cells/well at 37° C. for 24 hours. When the cell confluence reached ˜60-70%, the cells were rinsed three times with phosphate buffered saline (PBS). The cells were then treated with AMA, 4a and 4b at 25 μM concentration for 4 hours. The cells were then stained using 100 nM MitoTracker Green FM (Cell Signaling Technology, Danvers, Mass., USA) for 40 minutes. Thereafter, all images were recorded and counted using a 40× oil objective. To ensure accurate intensity measurements, the exposure time and laser time were kept the same. Data are reported as the mean of three independent experiments.

A short description of data set [3]: Relative fluorescence quantum yield. The data set is classed as physicochemical. The procedure:
All experiments requiring anhydrous conditions were conducted in flame-dried glassware fitted with a rubber septum under a positive pressure of dry argon. Reactions were performed at room temperature unless otherwise indicated. Analytical thin layer chromatography was performed using glass plates pre-coated with silica gel (0.25 mm, 60 Å pore size, 230-400 mesh, Silicycle) impregnated with a fluorescent indicator (254 nm). TLC plates were visualized by exposure to ultraviolet light (UV) or by staining using […]. Flash column chromatography was performed employing silica gel (60 Å pore size, 40-63 μm, standard grade, Silicycle). Fluorescence quantum yields were measured at 25° C. by a relative method using cresyl violet (CV, ΦF=56% in EtOH) as a standard.^1 The following equation was used to determine the relative fluorescence quantum yield: ΦF(x)=(AS/AX)(FX/FS)(nX/nS)^2ΦF(s) where A is the absorbance (in the range of 0.01-0.1 A.U.), F is the area under the emission curve, n is the refractive index of the solvents (at 25° C.) used in measurements, and the subscripts s and x represent standard and unknown, respectively. The following refractive index values were used: 1.362 for EtOH and 1.337 for PBS.

The test system of another data set is A549 lung cancer cells. Description: MTT toxicity assay. The data set is classed as cell-based, human. Conditions: 24 h incubation at 1, 5 and 10 μM, FIG. 9b. On the procedure:
Exponentially growing A459 cells were harvested and plated in 96-well plates at a concentration of 2×10^4 cells/well. After incubation at 37° C. for 24 h, the cells were treated with compounds AMA, 4a and 4b at final concentrations of 1, 5 and 10 μM for an additional 24 hours. Then 20 μL of MTT (5 mg/mL) was added to each well and the plates were incubated at 37° C. for 4 h. The supernatants were discarded, and 100 μL of DMSO was added to each well. The absorbance was recorded at 490 nm after 15 min. Cell viability was determined by the following formula: cell viability (%)=100−(ODnegative control−ODtreatment)×100%/(ODnegative control−ODbackground). Data are reported as the mean of three independent experiments, each run was carried out quintuplicate.
Background: Formazan colour is commonly taken as a measure of viable cells.

In data set [4] the test system is mitochondrial nitroreductase in live A549 cells. Nature of the data set: Fluorescence microscopy: activation of probes 2a, 2b and 2c in live A549 cells. The data set is classed as cell-based, human. From the text:
(§1) The strategy for the release of the fluorescent NIR dye from a non-fluorescent precursor via mitochondrial nitroreductase-mediated reduction involved successive reduction, then elimination (FIG. 5b). The use of ortho, meta and para substituted probes (2a-2c) was crucial because it enabled the investigation of the proposed transformation in greater detail. […] To assess the viability of these probes for the detection of nitroreductase activity, we first validated the probes in a cell free system using purified E. coli nitroreductase. Probes 2a-c (10 μM) were incubated in PBS buffer, pH 7.4, containing 0.5 mM NADH. After a short time, during which no fluorescence was observed, the nitroreductase was added (1 μg mL^−1) and the development of fluorescence was monitored as a function of time (FIGS. 6b, 6c). […] This confirms that the released fluorescent dye is effectively of the QCy7 type by comparison with an authentic standard prepared by chemical synthesis (FIG. 13). With the viability of this probe thus confirmed, we carried out microscopy experiments employing A549 cancer cells. The incubation of 10 μM 2c with the cells for 4 hours was followed by the addition of […] mitotracker green (40-minute incubation). […] The green channel (FIG. 7b) illustrates visualization of the mitochondria by mitotracker green. […] For 2b this is understandable as no elimination process is possible, as confirmed during the in vitro tests. In the case of 2a, we assume that the low kinetics of the reduction (c.f. FIG. 6b) is probably the cause of the absence of a strong signal. […]
Fluorescence images were acquired using a Zeiss Axiovert 200M inverted microscope fitted with an AxioCam MRm camera equipped with a 300 W xenon lamp (Sutter, Novato, Calif.), and Texas red and FITC filters (Chroma, Bellows Falls, Vt.). […] Thereafter, all images were recorded and the target cells counted using a 40× oil objective. […] Pixel intensity was quantified using AxioVision release 4.7 version software, and the mean pixel intensity was generated as gray level. […]

The next data set addresses DT diaphorase (Homo sapiens, UniProt P15559). Nature of the data set: Selectivity of probe activation: DT diaphorase versus nitroreductase. As to conditions: 10 μM 2c, 1 μg mL^-1 DTD or NTR, 10 mM PBS pH 7.4, 20 min, 25° C. The data set is classed as biochemical. The procedure: FIGS. 6A-6D. (a) Selective activation of 2c in vitro by E. coli nitroreductase. (b) Time dependent fluorescence emission by 2a, 2b and 2c (excitation at 572 nm; emission at 703 nm) in PBS at 25° C. following treatment with E. coli NTR (1 μg mL^−1) and 0.5 mM NADH. (c) Absorbance spectrum evolution with time during incubation of probe 2c in […] PBS buffer, pH 7.4, with E. coli NTR (1 μg mL^−1) and 0.5 mM NADH. (d) Development of fluorescence from 10 μM 2c following treatment with 1 μg mL^−1 DT diaphorase (DTD) or nitroreductase (NTR) in 10 mM PBS buffer, pH 7.4, for 20 min at 25° C. with or without […] NADH.
The strategy for the release of the fluorescent NIR dye from a non-fluorescent precursor via mitochondrial nitroreductase-mediated reduction involved successive reduction, then elimination (FIG. 5b). The use of ortho, meta and para substituted probes (2a-2c) was crucial because it enabled the investigation of the proposed transformation in greater detail. […] To assess the viability of these probes for the detection of nitroreductase activity, we first validated the probes in a cell free system using purified E. coli nitroreductase. […] After a short time, during which no fluorescence was observed, the nitroreductase was added (1 μg mL^−1) and the development of fluorescence was monitored as a function of time (FIGS. 6b, 6c). […]

In the next data set the target is E. coli nitroreductase (Escherichia coli, UniProt P38489). Description: Cell-free activation of profluorescent probes by purified E. coli nitroreductase (fluorescence monitoring). The data set is classed as biochemical.
E. coli nitroreductase, sequence (P38489 whole entry): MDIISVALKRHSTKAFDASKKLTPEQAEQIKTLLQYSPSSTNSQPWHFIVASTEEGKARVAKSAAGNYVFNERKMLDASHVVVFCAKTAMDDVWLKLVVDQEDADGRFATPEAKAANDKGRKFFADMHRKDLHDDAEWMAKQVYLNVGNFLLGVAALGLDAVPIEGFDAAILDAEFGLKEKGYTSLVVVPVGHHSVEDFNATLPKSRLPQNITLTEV
From the text: as §1
A solution of fluorogenic probe was prepared in 1 mL of phosphate buffered saline (PBS) and 150 μL of the resulting solution was transferred into a quartz fluorescence cell. […] After excitation at 572 nm the emission of the released fluorophore was monitored at 703 nm over time with measurements recorded every 1 sec. After 100 sec of incubation, 1.51 μL of a 1 mg mL^−1 solution of E. coli nitroreductase in water was added in the quartz fluorescence cell and the solution was mixed as the monitoring proceeded.

DT diaphorase, sequence (P15559 whole entry, species assumed): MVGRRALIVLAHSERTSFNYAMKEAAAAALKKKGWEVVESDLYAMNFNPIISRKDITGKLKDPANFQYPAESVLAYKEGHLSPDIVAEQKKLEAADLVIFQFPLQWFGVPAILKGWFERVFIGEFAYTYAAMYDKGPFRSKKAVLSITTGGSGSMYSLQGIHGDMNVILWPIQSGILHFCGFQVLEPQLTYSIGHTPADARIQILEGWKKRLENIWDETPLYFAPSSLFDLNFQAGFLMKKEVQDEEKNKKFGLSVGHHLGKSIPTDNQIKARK

As for `CCCCCC[C@H]1C(=O)O[C@H](C)[C@H](NC(=O)c2cccc(NC=O)c2O)C(=O)O[C@@H](C)[C@@H]1OC(=O)CC(C)C` [AMA, antimycin A, reference compound], in data set [1] (50 nM concentration), the “inhibition of NADH oxidase” value is “essentially completely”. Further, the “NADH oxidase inhibitory activity (qualitative comparison)” value (“NADH oxidase inhibitory activity” below) in data set [1] is on record as “potent inhibitor”. Besides, in data set [2], the “localization of AMA fluorescence relative to mitochondria in A549 cells” value is reported as “did not fully colocalize with mitochondria”. Besides, in data set [3], the “quantum yield of the released AMA” value is ~0.06.

For `CCCCCC[C@H]1C(=O)O[C@H](C)[C@H](NC(=O)c2cccc(NC=O)c2OCc2ccccc2)C(=O)O[C@@H](C)[C@@H]1OC(=O)CC(C)C` [Compound 4b, 2-O-Benzyl-AMA], in data set [1], the “NADH oxidase inhibitory activity” value was “much weaker activity”. In data set [2], the “release of AMA (appearance of AMA fluorescence, λem ~425 nm) in live A549 cells” value is “no significant release of AMA; also recorded: not to a significant extent”.

In the case of `CCCCCC[C@H]1C(=O)O[C@H](C)[C@H](NC(=O)c2cccc(NC=O)c2OCc2ccc([N+](=O)[O-])cc2)C(=O)O[C@@H](C)[C@@H]1OC(=O)CC(C)C` [Compound 4a, 2-O-(p-Nitrobenzyl)AMA], the “NADH oxidase inhibitory activity” value in data set [1] is recorded as “much weaker activity”. For the same molecule, the “cytotoxicity toward A549 cancer cells (qualitative comparison)” value in the data set on A549 lung cancer cells is “much more cytoxic toward A549 cancer cells than 4b; also recorded: considerably more cytotoxic than exogenously added AMA”. Besides, in data set [2], the “release of AMA (appearance of AMA fluorescence, λem ~425 nm) in live A549 cells” value is listed as “AMA was released from 4a” and the “localization of AMA fluorescence relative to mitochondria in A549 cells” value is listed as “Free AMA appeared exclusively in the mitochondria; also recorded: localized to the mitochondria”.

Turning to `CC[N+]1=C(/C=C/c2ccc(OCc3ccc([N+](=O)[O-])cc3)c(/C=C/C3=[N+](CC)c4ccccc4C3(C)C)c2)C(C)(C)c2ccccc21` [probe 2c], in data set [4] (10 μM 2c, 100 nM MitoTracker Green FM, DAPI), the “colocalization of probe fluorescence with MitoTracker Green (mitochondria)” value is “colocalized to mitochondria; also recorded: complete overlap of the red and green signals”. The “red fluorescence signal (release of QCy7 dye 3) in live A549 cells” value in data set [4] (10 μM probe, 4 hours incubation, no hypoxic condition) is reported as “activation of 2c by mitochondrial nitroreductase; also recorded: appearance of a red signal”. Also, in data set [4] (different times and concentrations, FIG. 16), the “concentration dependence of the signal in A549 cells” value is recorded as “concentration dependent”. For the same molecule, at DT diaphorase, the “activation by DT diaphorase versus nitroreductase, with or without NADH” value was “significant activation occurred only in the presence of the nitroreductase+NADH”. Also, the “rate of activation by E. coli nitroreductase, compared between probes” value at E. coli nitroreductase (10 μM probe, PBS pH 7.4, 0.5 mM NADH, NTR 1 μg mL^-1) is recorded as “much faster than the activation of 2a”. In addition, the “development of fluorescence (activation) after addition of E. coli nitroreductase” value at E. coli nitroreductase (10 μM probe, PBS pH 7.4, 0.5 mM NADH, NTR 1 μg mL^-1, excitation 572 nm, emission 703 nm, 25° C.) is on record as “good activation”. In addition, on E. coli nitroreductase (PBS 25° C., 0.5 mM NADH, E. coli NTR 1 μg mL^-1), the “dependence of fluorescence / activation on probe concentration” value was “linear correlation between fluorescence intensity and probe concentration; also recorded: increased with increasing substrate concentration”.
